Measured values published in article PMC9800617, “Pharmacokinetics/pharmacodynamics of polymyxin B in patients with bloodstream infection caused by carbapenem-resistant Klebsiella pneumoniae” (Frontiers in Pharmacology, 2022).
Values joined by “and” are separate entries in the source; they are usually repeats but may differ in a detail not shown here. Equal entries are not always repeated. Where two headings read alike, the source gives them in different places. Bridge positions count the residues as written; N and C are the ends. Square brackets hold non-standard residues; d marks the D form. Peptide text beside a SMILES is read from it. * marks the point of attachment. X1 = CC[C@H](C)CCCCC(=O)*; Dab = NCC[C@H](N)C(=O)O

Assays:
[1] = cited from earlier work
Source text: Nephrotoxicity following intravenous administration of polymyxin B may occur in up to ∼30% of patients and constitutes the major dose-limiting factor with polymyxin therapy ([Ouderkirk et al., 2003]; [Sobieszczyk et al., 2004]; [Phe et al., 2014]; [Oliota et al., 2019]). The inability to substantially increase the daily dose of polymyxins may lead to suboptimal dosing which compromises efficacy and increases the likelihood of resistance emerging ([Zavascki et al., 2007]; [Rigatto et al., 2014]). In the present study, no pathological factors affecting renal function were present in any of the p ...

[2] = healthy Chinese subjects, ref Liu et al., 2021, cited from earlier work
Source text: Neurotoxicity is another major dose-limiting factor for the polymyxins, although it often goes unreported given many patients receiving polymyxins are mechanically ventilated which makes assessment difficult. Polymyxin-induced neurotoxicity is very likely dose-dependent and is characterized by symptoms such as dizziness, vertigo, visual disturbances, confusion, hallucinations, seizures, ataxia, facial and peripheral parenthesis, and pruritus ([Falagas and Kasiakou, 2006]; [Weinstein et al., 2009]; [Wahby et al., 2010]; [Honore et al., 2013]). While neurologic side effects such as parenthesis h ...

[3] = Safety (adverse events, renal function) in BSI patients; format: in vivo, human
Protocol: The definition of different population groups for safety and efficacy analysis is shown in Supplementary Table S2. Briefly, safety was evaluated based on adverse events (AEs) in patients who received at least one polymyxin B dose. Adverse events were recorded based on patient self-reporting as well as abnormal laboratory test results including serum chemistry and routine blood and urinary testing. Acute kidney injury (AKI) was graded according to the RIFLE criteria ([Bellomo et al., 2004]). The primary endpoint was culture-confirmed bacterial eradication of CRKP from the blood evaluated by blood cultures taken every 3 days following the first dose of polymyxin B administration. Secondary endpoints were clinical outcome (clinical cure or improvement, Supplementary Table S3) evaluated in patients who received at least 3 days of polymyxin B treatment, and 28-day all-cause mortality evaluated in patients who completed 14 days of polymyxin B treatment.

[4] = cited from earlier work; remark: listed apart in the source
Protocol: Our study is the first to specifically examine patients with BSI using the recommended dosage regimen of polymyxin B (2.5–3.0 mg/kg/d) ([Tsuji et al., 2019]). Previous studies utilizing PPK models to examine polymyxin B PK have included primarily critically ill patients with various medical conditions or patients with cystic fibrosis, and have employed a wide range of doses (0.45–3.38 mg/kg/day) ([Sandri et al., 2013]; [Avedissian et al., 2018]; [Kubin et al., 2018]; [Manchandani et al., 2018]; [Miglis et al., 2018]; [Yu et al., 2021]).

K. pneumoniae = settings: ref Landersdorfer et al., 2018, cited from earlier work
Protocol: Monte Carlo simulations were conducted for the probability of target attainment (PTA) analysis to guide the selection of optimal dosage regimens. Different dosage regimens were simulated by the PPK model and AUCss,24h were calculated. […] The maximal reductions in colony f ... || FIGURE 4 Probability of target attainment for different dosage regimens of polymyxin B against common carbapenem-resistant organisms according to PK/PD simulations. (A) Loading dose for three bacterial species. […] In preclinical studies, the fAUC/MIC required for various magnitudes of bacterial killing varied among bacterial strains and infection sites. […] Against P. aeruginosa and A. b ... || (+ 2 further places)

[5] = 24 critically ill patients, 0.45–3.38 mg/kg/day, no loading dose, ref Sandri et al., 2013, cited from earlier work
Protocol: A good understanding of the PK of polymyxin B is essential for optimizing its clinical use. A previous population PK study examining the use of polymyxin B (0.45–3.38 mg/kg/day) in 24 critically ill patients reported an AUCss,24h of 66.9 ± 21.6 mg h/L (range, 16.4–117 mg h/L) and Css,avg of 2.79 ± 0.90 mg/L; no loading dose was administered ([Sandri et al., 2013]).

[6] = nine patients, 2.5 mg/kg loading, 1.25 mg/kg/12 h iv
[7] = healthy subjects, ref Liu et al., 2021

Structure (SMILES): CC[C@H](C)CCCCC(=O)N[C@@H](CCN)C(=O)N[C@H](C(=O)N[C@@H](CCN)C(=O)N[C@H]1CCNC(=O)[C@H]([C@@H](C)O)NC(=O)[C@H](CCN)NC(=O)[C@H](CCN)NC(=O)[C@H](CC(C)C)NC(=O)[C@@H](Cc2ccccc2)NC(=O)[C@H](CCN)NC1=O)[C@@H](C)O [polymyxin B] (X1-[Dab]T[Dab][Dab][Dab][dF]L[Dab][Dab]T; lactam 4-C)
- incidence of nephrotoxicity reported previously ([1]; ref Oliota et al., 2019): 29.8%
- incidence of polymyxin B-associated nephrotoxicity (RIFLE criteria) ([1]; ref Phe et al., 2014): 23.1%
- patients with nephrotoxicity following intravenous administration ([1]; up to, ref Ouderkirk et al., 2003, Sobieszczyk et al., 2004, Phe et al., 2014, Oliota et al., 2019): ~30%
- subjects with perioral paraesthesia, dizziness, and numbness of extremities ([2]; single dose 0.75 mg/kg, 1-h infusion, 7 of 10): 70%
- subjects with perioral paraesthesia, dizziness, and numbness of extremities ([2]; single dose 1.5 mg/kg, 1.5-h infusion): all subjects
- incidence of polymyxin B-induced AKI (RIFLE criteria) ([3]; 5/9 patients): 55.6%
- patients with at least one of neurotoxicity, nephrotoxicity, hyperpigmentation ([3]; 8/9 patients): 88.9%
- abdominal pain ([3]; during polymyxin B treatment, all patients): no abdominal pain was reported by any patient
- Hyperpigmentation, patients [3, 6]: 1/9
- Nephrotoxicity, patients [3, 6]: 5/9
- Neurotoxicity, patients [3, 6]: 5/9
- Study completion per protocol (Withdrawal reasons) ([3]; patient 1, treatment duration 6 days): Withdraw (AKI)
- Study completion per protocol (Withdrawal reasons) ([3]; patient 2, treatment duration 6 days): Withdraw (AKI)
- Study completion per protocol (Withdrawal reasons) ([3]; patient 3, treatment duration 14 days): Yes
- Study completion per protocol (Withdrawal reasons) ([3]; patient 4, treatment duration 1 day (loading dose only)): Withdraw (pruritus and numbness on face and head, ataxia)
- Study completion per protocol (Withdrawal reasons) ([3]; patient 5, treatment duration 5 days): Withdraw (AKI, pruritus and numbness on face and head, ataxia)
- Study completion per protocol (Withdrawal reasons) ([3]; patient 6, treatment duration 14 days): Yes
- Study completion per protocol (Withdrawal reasons) ([3]; patient 7, treatment duration 14 days): Yes
- Study completion per protocol (Withdrawal reasons) ([3]; patient 8, treatment duration 4 days): Withdraw (AKI, pruritus and numbness on face and head, ataxia)
- Study completion per protocol (Withdrawal reasons) ([3]; patient 9, treatment duration 14 days): Yes
- neurotoxicity among conscious patients ([3]; seven conscious patients (two sedated)): Five of seven and 5 of 7
- clearance [4, 7]: 0.433 ± 0.067 mL/min/kg
- half-life [4, 7]: 5.55 ± 0.942 h
- volume of distribution [4, 7]: 0.204 ± 0.026 L/kg
- dose excreted unchanged in the urine ([4]; ref Zavascki et al., 2008): ≤ 4%
- fAUC24h/MIC target (K. pneumoniae; 1-log10 reduction against K. pneumoniae, murine thigh infection): 17.4
- target values of fAUC/MIC (K. pneumoniae; 1 log10 kill, mouse thigh infection, three strains of K. pneumoniae): 3.7–28.0
- 2 log10 kill (K. pneumoniae; mouse thigh infection, three strains of K. pneumoniae): 2 log10 kill could not be achieved with even the highest tolerated dose
- AUCss,24h ([5]; mean ± SD, SD): 66900 ± 21600 ng·h/mL
- Css,avg ([5]; mean ± SD, SD): 2790 ± 900 ng/mL
- AUCss,24h, range [5]: 16400 to 117000 ng·h/mL
